“And” between values parts separate entries of the source, which are not always exact repeats. Equal entries are not always repeated.
Columns and labels:
[1] = test system: PC-3 prostate cancer cell line; assay: SRB assay cell viability, PC-3 prostate cancer cell line; type: cell-based, human; conditions: Homo sapiens, PC-3 prostate cancer cell line, Table II prints no unit, μM printed, read-out: SRB assay: 50% inhibition of cancer cell proliferation of sample concentration (IC50) of PC-3 prostate cancer cell line
SK-OV-3 = assay: NCI one-dose screening, ovarian cancer SK-OV-3; type: cell-based, human; conditions: 10 μM
SK-MEL-2 = assay: NCI one-dose screening, melanoma SK-MEL-2; type: cell-based, human; conditions: 10 μM
NCI-H460 = assay: NCI one-dose screening, non-small cell lung cancer NCI-H460; type: cell-based, human; conditions: 10 μM
SK-MEL-28 = assay: NCI one-dose screening, melanoma SK-MEL-28; type: cell-based, human; conditions: 10 μM
A549/ATCC = assay: NCI one-dose screening, non-small cell lung cancer A549/ATCC; type: cell-based, human; conditions: 10 μM
SN12C = assay: NCI one-dose screening, renal cancer SN12C; type: cell-based, human; conditions: 10 μM
CAKI-1 = assay: NCI one-dose screening, renal cancer CAKI-1; type: cell-based, human; conditions: 10 μM
OVCAR-8 = assay: NCI one-dose screening, ovarian cancer OVCAR-8; type: cell-based, human; conditions: 10 μM
786-O = assay: NCI one-dose screening, renal cancer 786-O; type: cell-based, human; conditions: 10 μM
NCI-H226 = assay: NCI one-dose screening, non-small cell lung cancer NCI-H226; type: cell-based, human; conditions: 10 μM
HL-60, TB = assay: NCI one-dose screening, leukemia HL-60, TB; type: cell-based, human; conditions: 10 μM
U251 = assay: NCI one-dose screening, CNS cancer U251; type: cell-based, human; conditions: 10 μM
UO-31 = assay: NCI one-dose screening, renal cancer UO-31; type: cell-based, human; conditions: 10 μM
SF-539 = assay: NCI one-dose screening, CNS cancer SF-539; type: cell-based, human; conditions: 10 μM
IGROV1 = assay: NCI one-dose screening, ovarian cancer IGROV1; type: cell-based, human; conditions: 10 μM
BT-549 = assay: NCI one-dose screening, breast cancer BT-549; type: cell-based, human; conditions: 10 μM
RXF, 393 = assay: NCI one-dose screening, renal cancer RXF, 393; type: cell-based, human; conditions: 10 μM
DU145 = assay: NCI one-dose screening, prostate cancer DU145; type: cell-based, human; conditions: 10 μM
PRMI-8226 cell line = assay: NCI one-dose screening, leukemia PRMI-8226; type: cell-based, human; conditions: 10 μM
CCRF-CEM = assay: NCI screening platform one-dose single concentration screening, leukemia CCRF-CEM; type: cell-based, human; conditions: 10 μM
MDA, -MB-435 = assay: NCI one-dose screening, breast cancer MDA, -MB-435; type: cell-based, human; conditions: 10 μM; listed under Melanoma
SNB-19 = assay: NCI one-dose screening, CNS cancer SNB-19; type: cell-based, human; conditions: 10 μM
M14 = assay: NCI one-dose screening, melanoma M14; type: cell-based, human; conditions: 10 μM
HCC-2998 = assay: NCI one-dose screening, colon cancer HCC-2998; type: cell-based, human; conditions: 10 μM
MALME-3M = assay: NCI one-dose screening, melanoma MALME-3M; type: cell-based, human; conditions: 10 μM
HCT-15 = assay: NCI one-dose screening, colon cancer HCT-15; type: cell-based, human; conditions: 10 μM
NCI-H522 = assay: NCI one-dose screening, non-small cell lung cancer NCI-H522; type: cell-based, human; conditions: 10 μM
OVCAR-4 = assay: NCI one-dose screening, ovarian cancer OVCAR-4; type: cell-based, human; conditions: 10 μM
human tumor cell lines = assay: NCI one-dose screening, Mean / Delta / Range of growth percent over all tested cell lines; type: cell-based; conditions: 10 μM
SR = assay: NCI one-dose screening, leukemia SR; type: cell-based, human; conditions: 10 μM
K562cell line = assay: NCI one-dose screening, leukemia K562; type: cell-based, human; conditions: 10 μM
KM12 = assay: NCI one-dose screening, colon cancer KM12; type: cell-based, human; conditions: 10 μM
MOLT-4 = assay: NCI one-dose screening, leukemia MOLT-4; type: cell-based, human; conditions: 10 μM
[2] = NCI one-dose screening, renal cancer A489; type: cell-based, human; conditions: 10 μM
HCT-116 = assay: NCI one-dose screening, colon cancer HCT-116; type: cell-based, human; conditions: 10 μM
SF-268 = assay: NCI one-dose screening, CNS cancer SF-268; type: cell-based, human; conditions: 10 μM
COLO 205 = assay: NCI one-dose screening, colon cancer COLO 205; type: cell-based, human; conditions: 10 μM
NCl/ADR-RES = assay: NCI one-dose screening, breast cancer NCl/ADR-RES; type: cell-based, human; conditions: 10 μM; listed under Ovarian cancer
MCF7 = assay: NCI one-dose screening, breast cancer MCF7; type: cell-based, human; conditions: 10 μM
UACC-62 = assay: NCI one-dose screening, melanoma UACC-62; type: cell-based, human; conditions: 10 μM
HS 578-T = assay: NCI one-dose screening, breast cancer HS 578-T; type: cell-based, human; conditions: 10 μM; Breast cancer
T-47D = assay: NCI one-dose screening, breast cancer T-47D; type: cell-based, human; conditions: 10 μM
NCI-H23 = assay: NCI one-dose screening, non-small cell lung cancer NCI-H23; type: cell-based, human; conditions: 10 μM
UACC-257 = assay: NCI one-dose screening, melanoma UACC-257; type: cell-based, human; conditions: 10 μM
HOP-92 = assay: NCI one-dose screening, non-small cell lung cancer HOP-92; type: cell-based, human; conditions: 10 μM
HOP-62 = assay: NCI one-dose screening, non-small cell lung cancer HOP-62; type: cell-based, human; conditions: 10 μM
MDA-MB-468 = assay: NCI one-dose screening, breast cancer MDA-MB-468; type: cell-based, human; conditions: 10 μM
PC-3 = assay: NCI one-dose screening, prostate cancer PC-3; type: cell-based, human; conditions: 10 μM
SNB-75 = assay: NCI one-dose screening, CNS cancer SNB-75; type: cell-based, human; conditions: 10 μM
NCI-H322M = assay: NCI one-dose screening, non-small cell lung cancer NCI-H322M; type: cell-based, human; conditions: 10 μM; Non-small cell lung cancer
MDA-MB-231/ATCC = assay: NCI one-dose screening, breast cancer MDA-MB-231/ATCC; type: cell-based, human; conditions: 10 μM
OVCAR-3 = assay: NCI one-dose screening, ovarian cancer OVCAR-3; type: cell-based, human; conditions: 10 μM
SF-295 = assay: NCI one-dose screening, CNS cancer SF-295; type: cell-based, human; conditions: 10 μM
LOX IMVI = assay: NCI one-dose screening, melanoma LOX IMVI; type: cell-based, human; conditions: 10 μM
TK-10 = assay: NCI one-dose screening, renal cancer TK-10; type: cell-based, human; conditions: 10 μM

Compound: Cc1ccc(Oc2cc3c(c4nsnc24)C(=O)c2ccccc2C3=O)cc1
- melting point: 244 to 245 °C

Compound: O=C1c2ccccc2C(=O)c2c1cc(S(=O)(=O)[O-])c1nsnc21.[Na+] [C3, Sodium 6,11-dioxo-6,11-dihydroanthra[2,1-c][1,2,5]thiadiazole-4-sulfonate]
- melting point: 293 to 295 °C
- IC50 [1]: 13.3 µM

Compound: CCN(CC)c1cc2c(c3nsnc13)C(=O)c1ccccc1C2=O [C5, 4-(diethylamino)anthra[2,1-c][1,2,5] thiadiazol-6,11-dione]
- melting point: 204 to 205 °C
- IC50 [1]: 1.1 µM

Compound: Cc1ccc(C)c(Sc2cc3c(c4nsnc24)C(=O)c2ccccc2C3=O)c1 [C20, 4-(2,5-dimethyl-phenyl-thio)anthra[2,1-c] [1,2,5]thiadiazol-6,11-dione]
- melting point: 243 to 244 °C
- IC50 [1]: 7.44 µM

Compound: O=C1c2ccccc2C(=O)c2c1cc(Sc1ccc(Cl)cc1)c1nsnc21 [C22, 4-(4-chloro-phenylthio)anthra[2,1-c] [1,2,5]thiadiazol-6,11-dione]
- Growth Percent SK-OV-3 (SK-OV-3): 108.96%
- Growth Percent SK-MEL-2 (SK-MEL-2): 109.49%
- Growth Percent NCI-H460 (NCI-H460): 99.52%
- Growth Percent SK-MEL-28 (SK-MEL-28): 130.48%
- Growth Percent A549/ATCC (A549/ATCC): 103.88%
- Growth Percent SN12C (SN12C): 86.95%
- Growth Percent CAKI-1 (CAKI-1): 86.97%
- Growth Percent OVCAR-8 (OVCAR-8): 88.60%
- Growth Percent 786-0 (786-O): 108.70%
- Growth Percent NCI-H226 (NCI-H226): 94.77% and 93.41%
- Growth Percent HL-60(TB) (HL-60, TB): 87.34%
- Growth Percent U251 (U251): 103.69%
- Growth Percent UO-31 (UO-31): 79.46%
- Growth Percent SF-539 (SF-539): 107.00%
- Growth Percent IGROV1 (IGROV1): 84.93%
- Growth Percent BT-549 (BT-549): 98.88%
- Growth Percent RXF 393 (RXF, 393): 117.52%
- Growth Percent DU145 (DU145): 117.15%
- Growth Percent RPMI-8226 (PRMI-8226 cell line): 90.15%
- Growth Percent CCRF-CEM (CCRF-CEM): 79.34%
- Growth Percent MDA-MB-435 (MDA, -MB-435): 106.67%
- Growth Percent SNB-19 (SNB-19): 105.18%
- Growth Percent M14 (M14): 105.44%
- Growth Percent HCC-2998 (HCC-2998): 106.82%
- Growth Percent MALME-3M (MALME-3M): 105.10%
- Growth Percent HCT-15 (HCT-15): 98.10%
- Growth Percent NCI-H522 (NCI-H522): 102.62%
- Growth Percent OVCAR-4 (OVCAR-4): 76.82%
- Growth Percent Delta (human tumor cell lines; delta over all cell lines): 51.95%
- Growth Percent Mean (human tumor cell lines; mean over all cell lines): 98.08%
- Growth Percent Range (human tumor cell lines; range over all cell lines): 93.67%
- Growth Percent SR (SR): 110.89%
- Growth Percent K562 (K562cell line): 94.91%
- Growth Percent KM12 (KM12): 101.50%
- Growth Percent MOLT-4 (MOLT-4): 59.21%
- Growth Percent A498 [2]: 93.03%
- Growth Percent HCT-116 (HCT-116): 98.25%
- Growth Percent SF-268 (SF-268): 104.55%
- Growth Percent COLO 205 (COLO 205): 121.41%
- Growth Percent NCI/ADR-RES (NCl/ADR-RES): 102.42%
- Growth Percent MCF7 (MCF7): 86.11%
- Growth Percent UACC-62 (UACC-62): 90.65%
- Growth Percent HS 578T (HS 578-T): 103.37%
- Growth Percent T-47D (T-47D): 85.04%
- Growth Percent NCI-H23 (NCI-H23): 104.26%
- Growth Percent UACC-257 (UACC-257): 95.45%
- Growth Percent HOP-92 (HOP-92): 101.98%
- Growth Percent HOP-62 (HOP-62): 94.80%
- Growth Percent MDA-MB-468 (MDA-MB-468): 46.13%
- Growth Percent PC-3 (PC-3): 86.94%
- IC50 [1]: > 15 µM
- Growth Percent SNB-75 (SNB-75): 91.73%
- Growth Percent NCI-H322M (NCI-H322M): 100.11%
- Growth Percent MDA-MB-231/ATCC (MDA-MB-231/ATCC): 89.05%
- Growth Percent OVCAR-3 (OVCAR-3): 118.64%
- Growth Percent SF-295 (SF-295): 97.26%
- Growth Percent LOX IMVI (LOX IMVI): 83.24%
- Growth Percent TK-10 (TK-10): 139.80%

Compound: CC(C)(C)c1ccc(CSc2cc3c(c4nsnc24)C(=O)c2ccccc2C3=O)cc1 [C57, 4-(4-tert-butylbenzylthio)anthra[2,1-c] [1,2,5]thiadiazol-6,11-dione]
- melting point: 256 to 257 °C
- IC50 [1]: 7.47 µM

Source: patent US8877748B2, “Heterocyclic fused anthraquinone derivatives, manufacturing method and pharmaceutical composition using thereof” (National Defense Medical Center, priority 2012, dated 2014)
